Experiment [1] relates to late watergrass. The experiment can be described thus: Test Example 1: herbicidal activity, application before weed generation under submerged conditions (Table 16, symbol A). The experiment is classed as in vivo, late watergrass (Echinochloa oryzicola). The gist of the method:
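Alluvial soil was flooded to 4 cm depth, weed seeds were sown mixed and 2.5-leaf rice seedlings were transplanted. On sowing day, the compound's emulsion, diluted in water to a set dose, was applied to the water surface. Plants grew at 25–30 °C and were scored 0–5 after three weeks.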

The subject of experiment [2] is late watergrass. As to the kind of experiment: Test Example 2: herbicidal activity, application during weed generation under submerged conditions (Table 17, symbol A). The experiment is classed as in vivo, late watergrass (Echinochloa oryzicola). Particulars: application during weed generation, submerged conditions. The gist of the method:
(§1)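 In this pot test, flooded alluvial soil (water depth 4 cm) holds all three species sown as a mixture. Once seedlings have one to two leaves, the compound's emulsion, thinned with water to the intended dose, is poured on the water; grading follows after three weeks on the earlier criteria.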

Experiment [3] concerns Japanese bulrush. The experiment can be described thus: Test Example 2: herbicidal activity, application during weed generation under submerged conditions (Table 17, symbol B). The settings on record: application during weed generation, submerged conditions. The experiment is classed as in vivo, Japanese bulrush (Schoenoplectus juncoides). The gist of the method:
as §1

For experiment [4], the system named is oval-leafed pondweed. As to the kind of experiment: Test Example 2: herbicidal activity, application during weed generation under submerged conditions (Table 17, symbol C). The experiment is classed as in vivo, oval-leafed pondweed (Monochoria vaginalis). The settings on record: application during weed generation, submerged conditions. The gist of the method:
as §1

In experiment [5] the test system is rice flat sedge. The experiment can be described thus: Test Example 3: herbicidal effect by foliage application, Wagner pot (Table 18, symbol E). The experiment is classed as in vivo, rice flat sedge (Cyperus iria). The gist of the method:
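Plants were sown in alluvial soil held under 0.1–0.5 cm standing water and grown 14 days in a greenhouse at 25–30 °C. An emulsifiable formulation, water-diluted to the set dose, was then sprayed onto the foliage, and effects were scored three weeks later using previously defined criteria.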

Experiment [6] concerns green foxtail. The experiment can be described thus: Test Example 4: herbicidal effect by soil treatment (Table 19, symbol G). The experiment is classed as in vivo, green foxtail (Setaria viridis). The gist of the method:
(§2)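 Emulsion of test compound, water-diluted to predetermined amount, sprayed on soil after sowing (seed depth ~1.5 cm, sterilized diluvial soil). Greenhouse, 25–30° C. Effect graded at three weeks post-spray.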

Experiment [7] has as its system barnyard grass. As to the kind of experiment: Test Example 4: herbicidal effect by soil treatment (Table 19, symbol H). The experiment is classed as in vivo, barnyard grass (Echinochloa crus-galli). Put shortly:
as §2

Experiment [8] relates to windgrass. As to the kind of experiment: Test Example 4: herbicidal effect by soil treatment (Table 19, symbol L). The experiment is classed as in vivo, windgrass (Apera spica-venti). The gist of the method: as §2
Experiment [9] has as its system velvetleaf. The experiment can be described thus: Test Example 4: herbicidal effect by soil treatment (Table 19, symbol M). The experiment is classed as in vivo, velvetleaf (Abutilon theophrasti). The gist of the method:
as §2

For experiment [10], the system named is lambsquarters. The experiment can be described thus: Test Example 4: herbicidal effect by soil treatment (Table 19, symbol O). The experiment is classed as in vivo, lambsquarters (Chenopodium album). Put shortly:
as §2

The test system of experiment [11] is chickweed. As to the kind of experiment: Test Example 4: herbicidal effect by soil treatment (Table 19, symbol P). The experiment is classed as in vivo, common chickweed (Stellaria media). Put shortly: as §2
The test system of experiment [12] is persian speedwell. The experiment can be described thus: Test Example 4: herbicidal effect by soil treatment (Table 19, symbol R). The experiment is classed as in vivo, Persian speedwell (Veronica persica). The gist of the method: as §2
For experiment [13], the system named is green foxtail. The experiment can be described thus: Test Example 5: herbicidal effect by foliage application, plastic box (Table 20, symbol G). The experiment is classed as in vivo, green foxtail (Setaria viridis). The settings on record: foliage application, three weeks after application. Put shortly: (§3)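 Post-emergence foliar test in sterilized diluvial soil. Compound applied as water-diluted emulsion at a predetermined rate to 14-day-old plants; evaluation at three weeks.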

Experiment [14] concerns Italian ryegrass. As to the kind of experiment: Test Example 5: herbicidal effect by foliage application, plastic box (Table 20, symbol K). The settings on record: foliage application, three weeks after application. The experiment is classed as in vivo, Italian ryegrass (Lolium multiflorum). Put shortly:
as §3

Experiment [15] concerns velvetleaf. As to the kind of experiment: Test Example 5: herbicidal effect by foliage application, plastic box (Table 20, symbol M). The experiment is classed as in vivo, velvetleaf (Abutilon theophrasti). The settings on record: foliage application, three weeks after application. The gist of the method:
as §3

Experiment [16] relates to redroot pigweed. The experiment can be described thus: Test Example 5: herbicidal effect by foliage application, plastic box (Table 20, symbol N). Particulars: foliage application, three weeks after application. The experiment is classed as in vivo, redroot pigweed (Amaranthus retroflexus). The gist of the method: as §3
Experiment [17] concerns chickweed. The experiment can be described thus: Test Example 5: herbicidal effect by foliage application, plastic box (Table 20, symbol P). The experiment is classed as in vivo, common chickweed (Stellaria media). Particulars: foliage application, three weeks after application. Put shortly:
as §3

Where [18] appears, read: amount of applied herbicide 320 g/ha.
Setting [19] is: amount of applied herbicide 224 g/ha.

Two molecules from US20230085307A1, “PYRIDAZINONE COMPOUND AND HERBICIDE” (NISSAN CHEMICAL CORPORATION, priority 2019, published 2023) can be followed below.

In the case of `CCCC(=O)Oc1c(C)nn(C)c(=O)c1-c1c(-c2ccccc2OCC)sc2cc(Cl)ccc12` [3-040], the “Herbicidal effect, A: late watergrass” value in experiment [1] (setting [18]) was 4 (Herbicidal rate of 70% or more and less than 90%). Further, the “herbicidal effect rating, A: late watergrass” value in experiment [2] (AAH 320 g/ha) is 2 (Herbicidal rate of 20% or more and less than 40%). In experiment [3] (AAH 320 g/ha), the “herbicidal effect rating, B: Japanese bulrush” value was 2 (Herbicidal rate of 20% or more and less than 40%). Besides, the “herbicidal effect rating, C: oval-leafed pondweed” value in [4] (AAH 320 g/ha) is 3 (Herbicidal rate of 40% or more and less than 70%). For the same molecule, the “herbicidal effect on rice flat sedge (E)” value in [5] (320 g/ha) is given as 5 (Herbicidal rate of 90% or more (almost completely withered)). The “G: green foxtail, herbicidal effect grade” value in experiment [6] (setting [18]) is 2 (Herbicidal rate of 20% or more and less than 40%); in [13] (320 g/ha) it was 4 (Herbicidal rate of 70% or more and less than 90%). The “H: barnyard grass, herbicidal effect grade” value in experiment [7] (setting [18]) is 0 (Herbicidal rate of 5% or less (almost no effect)). For the same molecule, the “L: windgrass, herbicidal effect grade” value in experiment [8] (setting [18]) is 5 (Herbicidal rate of 90% or more (almost completely withered)). Further, the “M: velvetleaf, herbicidal effect grade” value in experiment [9] (setting [18]) is 3 (Herbicidal rate of 40% or more and less than 70%); in [15] (320 g/ha) it was 4 (Herbicidal rate of 70% or more and less than 90%). In [10] (setting [18]), the “O: lambsquarters, herbicidal effect grade” value was 3 (Herbicidal rate of 40% or more and less than 70%). The “P: chickweed, herbicidal effect grade” value in experiment [11] (setting [18]) is 4 (Herbicidal rate of 70% or more and less than 90%); in experiment [17] (320 g/ha), 5 (Herbicidal rate of 90% or more (almost completely withered)). Also, the “R: persian speedwell, herbicidal effect grade” value in [12] (setting [18]) was 4 (Herbicidal rate of 70% or more and less than 90%). In addition, the “K: Italian ryegrass, herbicidal effect grade” value in experiment [14] (320 g/ha) is on record as 0 (Herbicidal rate of 5% or less (almost no effect)). In addition, the “N: redroot pigweed, herbicidal effect grade” value in experiment [16] (320 g/ha) is 5 (Herbicidal rate of 90% or more (almost completely withered)).

For the molecule `CCCC(=O)Oc1c(C)nn(C)c(=O)c1-c1c(-c2ccccc2OC)sc2cc(C)ccc12` [3-050], in experiment [1] (setting [19]), the “Herbicidal effect, A: late watergrass” value is 2 (Herbicidal rate of 20% or more and less than 40%). The “herbicidal effect rating, A: late watergrass” value in experiment [2] (AAH 224 g/ha) is listed as 0 (Herbicidal rate of 5% or less (almost no effect)). For the same molecule, the “herbicidal effect rating, B: Japanese bulrush” value in experiment [3] (AAH 224 g/ha) was 1 (Herbicidal rate of 5% or more and less than 20%). Further, the “herbicidal effect rating, C: oval-leafed pondweed” value in experiment [4] (AAH 224 g/ha) is 3 (Herbicidal rate of 40% or more and less than 70%). For the same molecule, the “herbicidal effect on rice flat sedge (E)” value in experiment [5] (224 g/ha) was 3 (Herbicidal rate of 40% or more and less than 70%). The “G: green foxtail, herbicidal effect grade” value in experiment [6] (setting [19]) was 0 (Herbicidal rate of 5% or less (almost no effect)); in experiment [13] (224 g/ha), 3 (Herbicidal rate of 40% or more and less than 70%). The “H: barnyard grass, herbicidal effect grade” value in [7] (setting [19]) is reported as 0 (Herbicidal rate of 5% or less (almost no effect)). Further, in experiment [8] (setting [19]), the “L: windgrass, herbicidal effect grade” value is 2 (Herbicidal rate of 20% or more and less than 40%). The “M: velvetleaf, herbicidal effect grade” value in experiment [9] (setting [19]) was 0 (Herbicidal rate of 5% or less (almost no effect)); in experiment [15] (224 g/ha), 4 (Herbicidal rate of 70% or more and less than 90%). Besides, the “O: lambsquarters, herbicidal effect grade” value in experiment [10] (setting [19]) is on record as 0 (Herbicidal rate of 5% or less (almost no effect)). Moreover, the “P: chickweed, herbicidal effect grade” value in experiment [11] (setting [19]) is 3 (Herbicidal rate of 40% or more and less than 70%); in experiment [17] (224 g/ha), 5 (Herbicidal rate of 90% or more (almost completely withered)). Also, the “R: persian speedwell, herbicidal effect grade” value in experiment [12] (setting [19]) was 1 (Herbicidal rate of 5% or more and less than 20%). Also, the “K: Italian ryegrass, herbicidal effect grade” value in experiment [14] (224 g/ha) is 4 (Herbicidal rate of 70% or more and less than 90%). The “N: redroot pigweed, herbicidal effect grade” value in [16] (224 g/ha) was 4 (Herbicidal rate of 70% or more and less than 90%).
